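Briefly, cells in 96-well plates were exposed to five compound concentrations for 48 h, and endpoints were estimated by linear interpolation. TGI marks complete inhibition of growth.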
Legend:
Assay in all cases: NCI tumour cell line growth inhibition, 48 h
DMS 114 small cell lung = test system: DMS 114 small cell lung
RXF-631 renal = test system: RXF-631 renal
LOX IMVI melanoma = test system: LOX IMVI melanoma
ACHN renal = test system: ACHN renal
SW-620 colon = test system: SW-620 colon
A549 NSCLC = test system: A549 NSCLC
DLD-1 colon = test system: DLD-1 colon
786-0 renal = test system: 786-0 renal
HCT-116 colon = test system: HCT-116 colon
NCI-H522 lung = test system: NCI-H522 lung
MCF7 breast = test system: MCF7 breast
OVCAR-3 ovarian = test system: OVCAR-3 ovarian
CAKI-1 renal = test system: CAKI-1 renal
TK-10 renal = test system: TK-10 renal
SNB-19 CNS = test system: SNB-19 CNS
MOLT-4 leukemia = test system: MOLT-4 leukemia
HOP-92 NSCLC = test system: HOP-92 NSCLC
UACC-62 melanoma = test system: UACC-62 melanoma
A498 renal = test system: A498 renal
SK-OV-3 ovarian = test system: SK-OV-3 ovarian
OVCAR-5 ovarian = test system: OVCAR-5 ovarian
KM12 colon = test system: KM12 colon
SN12C renal = test system: SN12C renal
UO-31 renal = test system: UO-31 renal
COLO 205 colon = test system: COLO 205 colon
HCT-15 colon = test system: HCT-15 colon
HCC-2998 colon = test system: HCC-2998 colon
RPMI-8226 leukemia = test system: RPMI-8226 leukemia
RXF 393 renal = test system: RXF 393 renal
DU-145 prostate = test system: DU-145 prostate
HS 578T breast = test system: HS 578T breast
LXFL 529 NSCLC = test system: LXFL 529 NSCLC
OVCAR-4 ovarian = test system: OVCAR-4 ovarian
MALME-3M melanoma = test system: MALME-3M melanoma
HOP-62 NSCLC = test system: HOP-62 NSCLC
PC-3 prostate = test system: PC-3 prostate
SR leukemia = test system: SR leukemia
M19-MEL melanoma = test system: M19-MEL melanoma
M14 melanoma = test system: M14 melanoma
MDA-N = test system: MDA-N
SK-MEL-5 melanoma = test system: SK-MEL-5 melanoma
SK-MEL-28 melanoma = test system: SK-MEL-28 melanoma
K-562 leukemia = test system: K-562 leukemia
XF 498 CNS = test system: XF 498 CNS
SF-295 CNS = test system: SF-295 CNS
T-47D breast = test system: T-47D breast
SNB-78 CNS = test system: SNB-78 CNS
HL-60(TB) leukemia = test system: HL-60(TB) leukemia
HT29 colon = test system: HT29 colon
NCI-H226 lung = test system: NCI-H226 lung
U251 CNS = test system: U251 CNS
HOP-18 NSCLC = test system: HOP-18 NSCLC
SF-268 CNS = test system: SF-268 CNS
CCRF-CEM leukemia = test system: CCRF-CEM leukemia
EKVX NSCLC = test system: EKVX NSCLC
NCI-H460 lung = test system: NCI-H460 lung
OVCAR-8 ovarian = test system: OVCAR-8 ovarian
NCI-H23 lung = test system: NCI-H23 lung
KM20L2 colon = test system: KM20L2 colon
IGROV1 ovarian = test system: IGROV1 ovarian
SNB-75 CNS = test system: SNB-75 CNS
SK-MEL-2 melanoma = test system: SK-MEL-2 melanoma
MDA-MB-435 = test system: MDA-MB-435
DMS 273 small cell lung = test system: DMS 273 small cell lung
UACC-257 melanoma = test system: UACC-257 melanoma
SF-539 CNS = test system: SF-539 CNS

`Cn1c2c(c3ccccc31)CCN(CCCCN1CCN(c3ccccc3)CC1)C2=O` gave a TGI (DMS 114 small cell lung) of over 79.1 µM, a TGI (RXF-631 renal) of over 100 µM and a TGI (LOX IMVI melanoma) of 32.1 µM. It also gave a TGI (ACHN renal) of over 100 µM, a TGI (SW-620 colon) of over 56.2 µM and a TGI (A549 NSCLC) of over 100 µM. It also gave a TGI (DLD-1 colon) of over 100 µM, a TGI (786-0 renal) of over 46.4 µM and a TGI (HCT-116 colon) of over 100 µM. It also gave a TGI (NCI-H522 lung) of over 100 µM, a TGI (MCF7 breast) of 63.2 µM and a TGI (OVCAR-3 ovarian) of over 100 µM. The TGI (CAKI-1 renal) was 98.5 µM, the TGI (TK-10 renal) was over 90.4 µM and the TGI (SNB-19 CNS) was over 100 µM. The TGI (MOLT-4 leukemia) was over 78 µM, the TGI (HOP-92 NSCLC) was over 100 µM and the TGI (UACC-62 melanoma) was over 68.7 µM. For the same compound, the TGI (A498 renal) was over 100 µM, the TGI (SK-OV-3 ovarian) was over 100 µM and the TGI (OVCAR-5 ovarian) was 80.9 µM. It also gave a TGI (KM12 colon) of over 89.9 µM, a TGI (SN12C renal) of over 91.4 µM and a TGI (UO-31 renal) of over 80.9 µM. The TGI (COLO 205 colon) was 26.2 µM, the TGI (HCT-15 colon) was over 100 µM and the TGI (HCC-2998 colon) was 31.7 µM. It also gave a TGI (RPMI-8226 leukemia) of over 92.3 µM, a TGI (RXF 393 renal) of 76.4 µM and a TGI (DU-145 prostate) of over 100 µM. It also gave a TGI (HS 578T breast) of 50.6 µM, a TGI (LXFL 529 NSCLC) of over 100 µM and a TGI (OVCAR-4 ovarian) of over 100 µM. For the same compound, the TGI (MALME-3M melanoma) was 30.9 µM, the TGI (HOP-62 NSCLC) was over 100 µM and the TGI (PC-3 prostate) was 86.6 µM. For the same compound, the TGI (SR leukemia) was over 100 µM, the TGI (M19-MEL melanoma) was over 86.7 µM and the TGI (M14 melanoma) was 16.9 µM. It also gave a TGI (MDA-N) of 89.9 µM, a TGI (SK-MEL-5 melanoma) of 22.9 µM and a TGI (SK-MEL-28 melanoma) of over 61.8 µM. The TGI (K-562 leukemia) was over 56 µM, the TGI (XF 498 CNS) was over 70.1 µM and the TGI (SF-295 CNS) was over 100 µM. For the same compound, the TGI (T-47D breast) was over 100 µM, the TGI (SNB-78 CNS) was over 100 µM and the TGI (HL-60(TB) leukemia) was over 81.3 µM. The TGI (HT29 colon) was 25.4 µM, the TGI (NCI-H226 lung) was over 87 µM and the TGI (U251 CNS) was over 84.2 µM. For the same compound, the TGI (HOP-18 NSCLC) was over 31.6 µM, the TGI (SF-268 CNS) was over 78.4 µM and the TGI (CCRF-CEM leukemia) was over 79.9 µM. The TGI (EKVX NSCLC) was over 71.9 µM, the TGI (NCI-H460 lung) was over 93.8 µM and the TGI (OVCAR-8 ovarian) was over 56.2 µM. It also gave a TGI (NCI-H23 lung) of over 76.8 µM, a TGI (KM20L2 colon) of 33.6 µM and a TGI (IGROV1 ovarian) of over 100 µM. For the same compound, the TGI (SNB-75 CNS) was over 100 µM, the TGI (SK-MEL-2 melanoma) was over 77.6 µM and the TGI (MDA-MB-435) was 36.7 µM. The TGI (DMS 273 small cell lung) was over 100 µM, the TGI (UACC-257 melanoma) was 26.6 µM and the TGI (SF-539 CNS) was over 100 µM.

Reference: PubChem BioAssay (NCI)
